Target: htau40 and tubulin dimer (Homo sapiens, UniProt P10636)
Assay: Light scattering, tau-promoted microtubule assembly
Assay type: biochemical
Settings: 60 μM compound, 10 μM tau, 30 μM tubulin
Description: The repeat domain of tau is not only important for PHF aggregation but also for the physiological function of microtubule binding. Microtubule polymerisation assays were performed in the absence and presence of compounds (FIG. 9).
The ability of tau to promote microtubule assembly was monitored by light scattering at 350 nm in a Tecan spectrophotometer model Safire (Tecan, Crailsheim, Germany). Tau protein (10 μM) was mixed with tubulin dimer (30 μM) and GTP (1 mM) at 4° C. in polymerisation buffer (100 mM Na-PIPES pH 6.9, 1 mM EGTA, 1 mM MgSO4, 1 mM DTT), with a final volume of 40 μl. Htau40 and inhibitor compounds (60 μM) were added last. After rapid mixing, the samples were pipetted into a Greiner transparent flat bottom 384 well plate (4 mm path length), which was prewarmed at 37° C. The reaction was started by incubating the cooled components of the reaction at 37° C. The assembly of tubulin into microtubules was monitored over time by a change in turbidity. Three parameters were extracted from curves. The maximum turbidity at steady state, the rate of assembly, and the lag time between the temperature jump and the start of the turbidity rise.
FIG. 9: Effect of compounds on microtubule binding 30 μM tubulin dimer was incubated in a microtiter plate at 37° C. in the absence and presence of htau40 (10 μM) and 60 μM compound. Absorbance was taken at 350 nm and plotted versus time. […]

Sequence of htau40 and tubulin dimer (P10636 1-441 isoform P10636-8): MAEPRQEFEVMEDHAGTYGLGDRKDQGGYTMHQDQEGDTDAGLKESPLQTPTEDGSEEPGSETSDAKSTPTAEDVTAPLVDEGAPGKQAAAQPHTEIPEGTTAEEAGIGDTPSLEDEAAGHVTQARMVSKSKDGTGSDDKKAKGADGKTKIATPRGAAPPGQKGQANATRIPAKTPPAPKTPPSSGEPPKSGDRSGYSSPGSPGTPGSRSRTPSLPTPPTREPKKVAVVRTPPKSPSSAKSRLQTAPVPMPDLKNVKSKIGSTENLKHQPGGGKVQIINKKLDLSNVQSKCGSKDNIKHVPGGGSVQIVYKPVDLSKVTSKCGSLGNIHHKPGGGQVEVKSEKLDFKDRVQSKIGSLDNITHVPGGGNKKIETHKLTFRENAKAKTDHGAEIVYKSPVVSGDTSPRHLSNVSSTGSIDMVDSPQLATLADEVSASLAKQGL

SMILES: Nc1c(/N=N/c2ccc(-c3ccc(/N=N/c4cc(S(=O)(=O)O)c5ccccc5c4N)cc3)cc2)cc(S(=O)(=O)O)c2ccccc12 [Congo Red]
- rate and extent of microtubule polymerisation: not significantly affected
